pIC50: −log10 of the molar value. Active and inactive are the calls of the source. Cut-off read from the data, not from the text of the source, for most assays here: actives have a measured EC50 and inactives only a lower limit.
Legend:
[1] = molecular target: Peroxisome proliferator-activated receptor gamma/Nuclear receptor coactivator 2 (Homo sapiens, UniProt P37231); assay type: functional;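 note: agonist potency for raising coactivator recruitment to the receptor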
[2] = molecular target: Peroxisome proliferator-activated receptor gamma/Nuclear receptor coactivator 1 (Homo sapiens, UniProt P37231); assay type: functional;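 note: agonist potency as compounds enhance coactivator SRC-1 recruitment to PPARgamma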
[3] = molecular target: Peroxisome proliferator-activated receptor gamma/Nuclear receptor coactivator 3 (Homo sapiens, UniProt P37231); assay type: functional;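 note: agonist potency for raising coactivator recruitment to the receptor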
Sequence of Peroxisome proliferator-activated receptor gamma/Nuclear receptor coactivator 3 (P37231 whole entry): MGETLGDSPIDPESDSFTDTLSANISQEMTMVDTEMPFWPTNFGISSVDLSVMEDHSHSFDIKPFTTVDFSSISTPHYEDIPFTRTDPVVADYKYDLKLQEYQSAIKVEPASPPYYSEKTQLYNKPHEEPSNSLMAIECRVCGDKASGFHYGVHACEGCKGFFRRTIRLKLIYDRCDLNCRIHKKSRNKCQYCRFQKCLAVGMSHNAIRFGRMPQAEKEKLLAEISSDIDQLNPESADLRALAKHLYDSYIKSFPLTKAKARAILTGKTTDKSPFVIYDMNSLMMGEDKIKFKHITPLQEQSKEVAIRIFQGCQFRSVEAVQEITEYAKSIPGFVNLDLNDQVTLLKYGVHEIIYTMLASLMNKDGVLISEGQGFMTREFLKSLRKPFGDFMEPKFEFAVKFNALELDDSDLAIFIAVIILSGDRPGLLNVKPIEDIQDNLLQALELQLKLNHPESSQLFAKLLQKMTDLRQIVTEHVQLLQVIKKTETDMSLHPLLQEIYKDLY
Sequence of Peroxisome proliferator-activated receptor gamma/Nuclear receptor coactivator 3 (Q9Y6Q9 whole entry, further chain): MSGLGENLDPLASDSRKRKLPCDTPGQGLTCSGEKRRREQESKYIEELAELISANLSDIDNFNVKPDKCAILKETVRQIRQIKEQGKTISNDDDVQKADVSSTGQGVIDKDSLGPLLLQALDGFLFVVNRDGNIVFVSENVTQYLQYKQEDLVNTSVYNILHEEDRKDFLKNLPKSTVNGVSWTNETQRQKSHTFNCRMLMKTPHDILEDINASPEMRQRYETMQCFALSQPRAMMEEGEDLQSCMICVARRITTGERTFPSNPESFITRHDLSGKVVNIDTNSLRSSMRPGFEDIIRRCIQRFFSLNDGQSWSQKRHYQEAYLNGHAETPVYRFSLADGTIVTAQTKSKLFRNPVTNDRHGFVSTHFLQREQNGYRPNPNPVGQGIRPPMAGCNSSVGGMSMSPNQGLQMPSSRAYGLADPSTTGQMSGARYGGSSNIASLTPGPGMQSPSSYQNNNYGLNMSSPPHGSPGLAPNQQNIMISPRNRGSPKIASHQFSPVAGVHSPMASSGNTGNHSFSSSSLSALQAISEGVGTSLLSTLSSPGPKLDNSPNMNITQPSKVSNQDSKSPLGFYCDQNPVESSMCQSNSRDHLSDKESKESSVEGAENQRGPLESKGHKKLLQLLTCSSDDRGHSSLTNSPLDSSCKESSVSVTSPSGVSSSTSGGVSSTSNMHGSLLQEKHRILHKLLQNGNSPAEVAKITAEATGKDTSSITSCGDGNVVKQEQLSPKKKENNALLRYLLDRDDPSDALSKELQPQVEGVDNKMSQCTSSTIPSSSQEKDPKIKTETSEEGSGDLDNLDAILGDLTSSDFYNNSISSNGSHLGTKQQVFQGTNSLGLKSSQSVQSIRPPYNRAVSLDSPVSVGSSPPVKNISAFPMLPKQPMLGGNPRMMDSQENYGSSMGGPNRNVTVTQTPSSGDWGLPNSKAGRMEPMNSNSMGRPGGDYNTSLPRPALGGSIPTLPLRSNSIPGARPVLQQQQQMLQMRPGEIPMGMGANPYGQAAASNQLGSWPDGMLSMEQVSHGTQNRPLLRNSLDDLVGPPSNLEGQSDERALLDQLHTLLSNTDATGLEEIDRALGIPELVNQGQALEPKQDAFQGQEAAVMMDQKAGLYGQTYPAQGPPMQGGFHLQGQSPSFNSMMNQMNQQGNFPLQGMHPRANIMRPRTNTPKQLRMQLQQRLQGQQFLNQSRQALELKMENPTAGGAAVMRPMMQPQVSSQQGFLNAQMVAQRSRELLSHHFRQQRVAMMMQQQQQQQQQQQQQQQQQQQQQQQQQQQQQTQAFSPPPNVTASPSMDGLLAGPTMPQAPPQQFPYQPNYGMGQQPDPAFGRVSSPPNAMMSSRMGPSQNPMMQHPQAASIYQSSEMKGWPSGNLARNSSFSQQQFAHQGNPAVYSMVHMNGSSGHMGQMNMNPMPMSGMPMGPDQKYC

[4] = molecular target: T1, Neuropeptide Y receptor type 1 (Homo sapiens, UniProt P25929); assay: NPY-Y1 receptor antagonist potency, dose response, cell-based (AID 1277); assay type: functional
T1 sequence (P25929 whole entry): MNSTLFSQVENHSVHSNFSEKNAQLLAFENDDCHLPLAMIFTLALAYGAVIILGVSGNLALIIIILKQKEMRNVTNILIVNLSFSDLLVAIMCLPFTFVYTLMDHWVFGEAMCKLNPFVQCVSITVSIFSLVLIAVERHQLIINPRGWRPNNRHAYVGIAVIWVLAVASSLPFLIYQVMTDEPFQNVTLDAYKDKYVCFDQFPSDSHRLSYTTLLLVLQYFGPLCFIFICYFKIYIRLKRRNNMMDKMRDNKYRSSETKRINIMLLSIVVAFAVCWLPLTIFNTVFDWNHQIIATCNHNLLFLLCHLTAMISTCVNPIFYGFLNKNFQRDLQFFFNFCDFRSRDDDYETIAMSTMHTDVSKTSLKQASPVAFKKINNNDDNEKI

[5] = molecular target: T2, Neuropeptide Y receptor type 2 (Homo sapiens, UniProt P49146); assay: NPY-Y2 antagonist potency, selectivity check, dose response, counter-screen for NPY-Y1 antagonist project, cell-based (AID 1278); assay type: functional
T2 sequence (P49146 whole entry): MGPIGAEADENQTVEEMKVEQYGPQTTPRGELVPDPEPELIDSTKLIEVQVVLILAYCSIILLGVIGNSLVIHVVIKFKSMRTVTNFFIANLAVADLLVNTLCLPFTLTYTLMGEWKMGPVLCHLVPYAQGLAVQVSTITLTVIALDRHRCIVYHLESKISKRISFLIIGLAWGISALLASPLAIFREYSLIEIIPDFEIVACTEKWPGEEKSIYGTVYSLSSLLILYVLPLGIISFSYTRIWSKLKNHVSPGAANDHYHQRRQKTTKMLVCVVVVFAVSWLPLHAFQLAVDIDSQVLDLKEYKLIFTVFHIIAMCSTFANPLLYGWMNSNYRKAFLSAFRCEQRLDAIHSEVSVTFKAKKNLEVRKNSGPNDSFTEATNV

cells = assay type: functional, cell-based
[6] = Luminescence Cell-Based Dose Response HTS to Identify Inhibitors of 5'UTR Stem-Loop Driven Prion Protein mRNA Translation in H4 Neuroglioblastoma Cells. [Related pubchem assays: 1827 (Project Summary), 1813 (Primary HTS)]; assay type: functional
Beta-galactosidase [7] = molecular target: T3, Beta-galactosidase (Escherichia coli, UniProt Q8VNN2); assay type: functional
T3 sequence (Q8VNN2 whole entry): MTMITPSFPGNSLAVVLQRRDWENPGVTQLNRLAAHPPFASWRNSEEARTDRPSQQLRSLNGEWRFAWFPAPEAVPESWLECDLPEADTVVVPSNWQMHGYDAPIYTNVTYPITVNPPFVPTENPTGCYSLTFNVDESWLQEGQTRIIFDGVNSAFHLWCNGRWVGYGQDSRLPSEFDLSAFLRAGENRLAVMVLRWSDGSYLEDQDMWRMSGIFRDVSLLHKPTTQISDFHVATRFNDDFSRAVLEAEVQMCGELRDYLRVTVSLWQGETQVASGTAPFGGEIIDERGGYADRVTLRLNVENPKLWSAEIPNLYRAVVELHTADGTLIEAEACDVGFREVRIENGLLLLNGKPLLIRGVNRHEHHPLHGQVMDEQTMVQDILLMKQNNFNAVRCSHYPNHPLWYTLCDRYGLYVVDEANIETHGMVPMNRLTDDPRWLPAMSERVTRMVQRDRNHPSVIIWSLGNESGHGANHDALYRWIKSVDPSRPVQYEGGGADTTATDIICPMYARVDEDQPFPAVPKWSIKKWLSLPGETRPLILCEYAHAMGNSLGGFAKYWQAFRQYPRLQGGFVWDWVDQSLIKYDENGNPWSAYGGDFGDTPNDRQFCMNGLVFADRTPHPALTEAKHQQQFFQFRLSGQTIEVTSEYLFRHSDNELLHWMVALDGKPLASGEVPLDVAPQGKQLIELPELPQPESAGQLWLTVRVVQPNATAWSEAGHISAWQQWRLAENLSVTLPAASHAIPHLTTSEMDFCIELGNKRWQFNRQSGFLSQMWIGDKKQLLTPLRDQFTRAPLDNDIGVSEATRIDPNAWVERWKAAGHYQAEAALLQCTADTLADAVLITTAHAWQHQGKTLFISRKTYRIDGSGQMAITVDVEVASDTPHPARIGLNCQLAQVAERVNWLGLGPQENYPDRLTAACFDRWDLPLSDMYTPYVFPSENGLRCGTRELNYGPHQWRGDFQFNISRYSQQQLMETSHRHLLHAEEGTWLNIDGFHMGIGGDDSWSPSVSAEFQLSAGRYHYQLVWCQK

[8] = Luminescence-based dose response cell-based high throughput screening assay for cytotoxic compounds using the IEC-6 intestinal epithelial cell line. [Related pubchem assays: 1858 (Summary AID.), 1825 (Counterscreen.), 1907 (Confirmation screen.)]; assay type: functional
[9] = molecular target: T4, Kappa-type opioid receptor (Homo sapiens, UniProt P41145); assay type: functional
T4 sequence (P41145 whole entry): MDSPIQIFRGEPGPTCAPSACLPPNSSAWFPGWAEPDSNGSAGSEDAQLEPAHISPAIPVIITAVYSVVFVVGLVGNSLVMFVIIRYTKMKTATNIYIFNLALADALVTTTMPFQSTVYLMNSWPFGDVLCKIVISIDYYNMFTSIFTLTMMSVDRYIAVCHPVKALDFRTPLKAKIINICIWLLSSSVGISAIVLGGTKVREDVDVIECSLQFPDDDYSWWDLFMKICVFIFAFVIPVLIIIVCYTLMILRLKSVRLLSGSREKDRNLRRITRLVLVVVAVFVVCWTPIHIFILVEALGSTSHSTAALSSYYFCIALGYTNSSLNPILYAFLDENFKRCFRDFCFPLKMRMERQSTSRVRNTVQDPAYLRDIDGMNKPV

BJ [10] = assay: cells; assay type: functional, cell-based; settings: Homo sapiens
Beta-galactosidase [11] = molecular target: T3, Beta-galactosidase; assay: Dose response counterscreen for EBI2 assay utilizing the enzyme, b-galactosidase.; assay type: functional
[12] = molecular target: T5, RNA-binding protein pos-1 (Caenorhabditis elegans, UniProt G5EF15); assay: inhibitors of POS-1/mex-3 RNA binding, dose response, biochemical, fluorescence polarization (AID 1964);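 note: purified POS-1 fused to maltose binding protein made in E. coli; potency of compounds blocking POS-1 binding to fluorescent RNA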
T5 sequence (G5EF15 whole entry): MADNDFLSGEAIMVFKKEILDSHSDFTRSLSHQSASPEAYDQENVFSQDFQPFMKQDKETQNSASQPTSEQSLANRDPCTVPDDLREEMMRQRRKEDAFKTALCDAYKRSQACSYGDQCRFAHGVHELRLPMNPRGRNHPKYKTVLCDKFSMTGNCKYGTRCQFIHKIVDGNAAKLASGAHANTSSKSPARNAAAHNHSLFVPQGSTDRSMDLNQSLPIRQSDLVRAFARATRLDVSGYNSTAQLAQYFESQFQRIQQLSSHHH

[13] = molecular target: T4, Kappa-type opioid receptor; assay type: functional; remark: listed apart in the source
[14] = luciferase reporter signal reduction – luminescence, H4-C neuroglioblastoma cells, dose response (AID 2458); assay type: functional, cell-based;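 note: H4 neuroglioblastoma cells stably carrying a luciferase reporter gene fusion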
[15] = inhibitors of firefly luciferase expression or activity, dose response, H4 neuroglioma cells, luminescence (AID 1990); assay type: functional, cell-based
BJ [16] = assay: cytotoxicity toward BJ-TERT fibroblasts, dose response, cell-based, RAS-independent, luminescence (AID 1933); assay type: functional; settings: Homo sapiens
BJ [17] = assay: cytotoxicity toward BJ-TERT-LT-ST fibroblasts, dose response, cell-based, RAS-independent, luminescence (AID 1935); assay type: functional; settings: Homo sapiens;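 note: BJ fibroblasts immortalized with TERT plus LT and ST oncogenes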
[18] = inhibitors of SNCA 5'UTR-driven translation, confirmation, luminescence, H4 neuroglioblastoma cells, dose confirmation (AID 2454); assay type: functional, cell-based;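 note: H4 neuroglioblastoma cells carrying an alpha-synuclein 5'UTR luciferase reporter; potency for inhibition of the luciferase signal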
[19] = molecular target: Heat shock protein HSP 90-alpha (Homo sapiens, UniProt P07900); assay type: functional, organism-based
BJ [20] = assay: cytotoxicity toward Ras-transformed BJeLR fibroblasts, dose response, cell-based, alamar blue fluorescence, cherrypicked samples (AID 2631); assay type: functional; settings: Homo sapiens;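 note: confirmatory dose-response assay in RAS-dependent BJ fibroblasts engineered with TERT, LT and ST, with cytotoxicity read by fluorescence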
[21] = inhibitors of SNCA 5'UTR-driven reporter translation, confirmation, H4 neuroglioma cells, luminescence (AID 1988); assay type: functional, cell-based
[22] = molecular target: T6, Zinc finger protein mex-5 (Caenorhabditis elegans, UniProt Q9XUB2); assay: MEX-5/TCR-2 RNA interaction inhibitors, dose response, biochemical, C. elegans, fluorescence polarization (AID 1960)
T6 sequence (Q9XUB2 whole entry): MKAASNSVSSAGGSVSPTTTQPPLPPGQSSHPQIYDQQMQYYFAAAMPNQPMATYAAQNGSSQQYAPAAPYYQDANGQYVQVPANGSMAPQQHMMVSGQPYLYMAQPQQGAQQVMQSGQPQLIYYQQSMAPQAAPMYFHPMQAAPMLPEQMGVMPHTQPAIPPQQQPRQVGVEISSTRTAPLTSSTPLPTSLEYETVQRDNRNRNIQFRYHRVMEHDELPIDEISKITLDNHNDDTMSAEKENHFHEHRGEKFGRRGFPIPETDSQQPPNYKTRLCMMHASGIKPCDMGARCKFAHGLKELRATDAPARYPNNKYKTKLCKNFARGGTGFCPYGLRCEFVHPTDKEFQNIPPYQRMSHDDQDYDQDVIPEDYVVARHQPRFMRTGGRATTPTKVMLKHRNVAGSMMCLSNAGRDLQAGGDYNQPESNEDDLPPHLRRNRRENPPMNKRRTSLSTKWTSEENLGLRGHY

Nonstructural protein 1 = Nonstructural protein 1 (Influenza A virus, UniProt Q194T2); assay type: functional, Influenza A virus (A/California/07/2009(H1N1))
Sequence of Nonstructural protein 1 (Q194T2 whole entry): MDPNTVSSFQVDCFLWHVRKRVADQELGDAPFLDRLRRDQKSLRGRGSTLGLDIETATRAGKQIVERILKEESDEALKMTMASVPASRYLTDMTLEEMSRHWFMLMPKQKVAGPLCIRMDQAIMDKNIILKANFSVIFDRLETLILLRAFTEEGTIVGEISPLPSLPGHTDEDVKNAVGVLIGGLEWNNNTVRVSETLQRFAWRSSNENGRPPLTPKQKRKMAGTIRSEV

[23] = cytotoxicity toward DRD oncogenic fibroblasts, dose response, cell-based, non-viral oncogenic, luminescence (AID 1934); assay type: functional; settings: Homo sapiens
[24] = molecular target: Potassium voltage-gated channel subfamily KQT member 2 (Rattus norvegicus, UniProt O88943, W236L); assay: KCNQ2 channel potentiators, dose response, mechanism study for KCNQ2 potentiator project, cell-based, automated electrophysiology (AID 2603); assay type: functional
Sequence of Potassium voltage-gated channel subfamily KQT member 2 (O88943 whole entry W236L): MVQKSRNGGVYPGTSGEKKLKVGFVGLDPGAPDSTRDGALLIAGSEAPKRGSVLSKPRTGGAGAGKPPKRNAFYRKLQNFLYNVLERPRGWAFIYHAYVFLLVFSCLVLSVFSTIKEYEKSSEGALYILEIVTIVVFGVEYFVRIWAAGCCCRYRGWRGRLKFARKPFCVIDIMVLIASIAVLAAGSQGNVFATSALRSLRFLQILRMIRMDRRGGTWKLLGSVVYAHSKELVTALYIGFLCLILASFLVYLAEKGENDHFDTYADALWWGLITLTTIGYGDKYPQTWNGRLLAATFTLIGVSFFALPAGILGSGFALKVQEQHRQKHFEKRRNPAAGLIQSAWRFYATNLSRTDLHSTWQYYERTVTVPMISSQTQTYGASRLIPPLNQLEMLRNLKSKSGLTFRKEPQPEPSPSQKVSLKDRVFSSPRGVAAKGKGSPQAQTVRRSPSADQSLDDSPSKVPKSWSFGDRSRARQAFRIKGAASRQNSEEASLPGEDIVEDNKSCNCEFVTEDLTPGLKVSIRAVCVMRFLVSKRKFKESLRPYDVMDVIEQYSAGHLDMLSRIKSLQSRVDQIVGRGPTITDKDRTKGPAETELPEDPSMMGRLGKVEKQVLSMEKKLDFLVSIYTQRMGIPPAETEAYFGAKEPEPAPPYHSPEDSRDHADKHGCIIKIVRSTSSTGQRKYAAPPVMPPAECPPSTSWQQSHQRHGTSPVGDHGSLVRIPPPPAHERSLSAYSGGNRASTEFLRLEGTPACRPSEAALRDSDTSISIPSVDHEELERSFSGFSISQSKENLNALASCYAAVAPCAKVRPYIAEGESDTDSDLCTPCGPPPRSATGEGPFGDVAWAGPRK

Structure (SMILES): O=C(CCSCc1ccccc1Cl)NCc1cccs1
- EC50 [1]: > 79.4 µM (not active)
- EC50 [2]: > 79.4 µM (not active)
- EC50 [3]: > 79.4 µM (not active)

Structure (SMILES): CCCCC(O)(CCCC)C(=O)NN(C(=O)OC)c1ccccc1
- IC50 [4]: > 35 µM (not active)
- IC50 [5]: > 35 µM (not active)

Structure (SMILES): C/C(=N\Nc1ncnc2sc(C)c(C)c12)c1ccccn1
- EC50 (cells): 0.472 µM (active)
- EC50 [6]: < 0.1 µM (active)
- EC50 (Beta-galactosidase [7]): > 31.5 µM (inactive)
- IC50 [8]: 0.0762 µM (active)
- IC50 [9]: > 31.5 µM (inactive)
- EC50 (BJ [10]): 0.966 µM (inconclusive)
- IC50 (Beta-galactosidase [11]): > 80 µM (inactive)
- EC50 [12]: 23.3 µM (inconclusive)
- pIC50 [13]: < 4.49
- EC50 [14]: 0.222 µM (active)
- EC50 [15]: 0.244 µM (active)
- EC50 (BJ [16]): 0.711 µM (inconclusive)
- EC50 (BJ [17]): 0.754 µM (inconclusive)
- EC50 [18]: 0.378 µM (active)
- AC50 [19]: 2.42 µM (active)
- EC50 (BJ [20]): < 0.104 µM (active)
- EC50 [21]: < 0.1 µM (active)
- EC50 [22]: 46.7 µM (inconclusive)
- IC50 (Nonstructural protein 1): 19.3 µM (active)
- EC50 [23]: 2.02 µM (inconclusive)

Structure (SMILES): O=C(Nc1cccc(OC(F)(F)F)c1)c1ccc(Br)o1
- EC50 [24]: 13.8 µM (active)
